The values that follow come from patent US20030203975A1, “Anti-cancer agents” (priority 1998, published 2003).

Assay [1] has as its target T1, Topoisomerase IIα (Homo sapiens, UniProt P11388). Briefly: Topo II relaxation assay. In kind it is biochemical. Set-up: key: ‘—’ = Not active. To be noted: unit not given; compound at 1, 10, 25 and 50 μM in protocol. How it is done: (§1) Topo II Relaxation Assay Protocol
(§2) 10×Topo II Relaxation Buffer
(§3) 500 mM Tris-HCl (pH 7.5); 100 mM mgCI2; 50 mM EDTA; 300 mg/mI BSA; 10 mM DTT; −20° C.

For assay [2], the target named is T2, Topoisomerase IIβ (Homo sapiens, UniProt Q02880). Briefly: Topo II relaxation assay. In kind it is biochemical. Details: key: ‘—’ = Not active. To be noted: unit not given; compound at 1, 10, 25 and 50 μM in protocol. As to the method: as §1, §2, §3
T2 sequence (Q02880 whole entry): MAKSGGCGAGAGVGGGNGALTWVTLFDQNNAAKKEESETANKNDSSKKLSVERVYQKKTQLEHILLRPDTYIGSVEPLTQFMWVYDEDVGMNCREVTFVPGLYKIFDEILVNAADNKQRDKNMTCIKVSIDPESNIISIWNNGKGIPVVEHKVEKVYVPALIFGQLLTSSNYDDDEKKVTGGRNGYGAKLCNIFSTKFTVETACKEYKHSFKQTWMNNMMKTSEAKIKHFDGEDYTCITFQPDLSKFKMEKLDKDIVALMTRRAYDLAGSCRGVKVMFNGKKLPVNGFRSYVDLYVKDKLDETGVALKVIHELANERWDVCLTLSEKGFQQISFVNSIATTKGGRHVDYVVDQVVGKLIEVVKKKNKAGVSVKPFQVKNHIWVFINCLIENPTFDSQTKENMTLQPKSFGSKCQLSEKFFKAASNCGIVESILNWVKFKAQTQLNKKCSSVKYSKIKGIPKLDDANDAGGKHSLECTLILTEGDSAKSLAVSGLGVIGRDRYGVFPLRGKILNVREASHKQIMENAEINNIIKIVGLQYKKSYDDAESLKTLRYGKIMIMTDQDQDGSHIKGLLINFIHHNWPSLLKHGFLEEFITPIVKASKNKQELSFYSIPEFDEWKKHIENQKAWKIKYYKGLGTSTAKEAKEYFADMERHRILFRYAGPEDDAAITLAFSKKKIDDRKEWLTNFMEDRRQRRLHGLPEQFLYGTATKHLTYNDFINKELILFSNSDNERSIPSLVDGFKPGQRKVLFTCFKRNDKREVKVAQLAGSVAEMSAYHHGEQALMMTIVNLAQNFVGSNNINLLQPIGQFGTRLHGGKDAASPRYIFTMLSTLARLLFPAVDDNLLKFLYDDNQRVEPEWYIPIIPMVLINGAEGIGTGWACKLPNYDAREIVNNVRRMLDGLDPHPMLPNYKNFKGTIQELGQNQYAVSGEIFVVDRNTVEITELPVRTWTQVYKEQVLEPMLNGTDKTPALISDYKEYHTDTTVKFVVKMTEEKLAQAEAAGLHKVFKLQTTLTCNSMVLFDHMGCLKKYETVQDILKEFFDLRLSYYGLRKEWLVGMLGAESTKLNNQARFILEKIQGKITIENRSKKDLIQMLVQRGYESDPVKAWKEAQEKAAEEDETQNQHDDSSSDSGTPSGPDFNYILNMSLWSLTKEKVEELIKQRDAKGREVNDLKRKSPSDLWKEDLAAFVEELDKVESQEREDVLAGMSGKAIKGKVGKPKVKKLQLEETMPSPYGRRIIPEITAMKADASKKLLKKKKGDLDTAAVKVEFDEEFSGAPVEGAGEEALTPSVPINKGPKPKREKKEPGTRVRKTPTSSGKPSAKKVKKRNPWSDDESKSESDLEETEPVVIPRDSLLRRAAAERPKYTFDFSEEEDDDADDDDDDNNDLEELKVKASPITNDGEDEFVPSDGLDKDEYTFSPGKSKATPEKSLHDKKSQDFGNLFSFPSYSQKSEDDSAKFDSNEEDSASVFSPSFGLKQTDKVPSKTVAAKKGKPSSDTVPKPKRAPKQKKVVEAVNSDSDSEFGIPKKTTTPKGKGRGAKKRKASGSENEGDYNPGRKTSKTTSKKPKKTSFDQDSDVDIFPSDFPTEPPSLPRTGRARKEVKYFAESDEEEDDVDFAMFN
Assay [3] has as its target T1, Topoisomerase IIα. As to the kind of experiment: Topo II decatenation assay. Details: key: ‘—’ = Not active. To be noted: unit not given; kDNA substrate; compound at 1, 10, 25 and 50 μM in protocol. It counts as biochemical. How it is done:
(§4) Topisomerase Decatenation Assay.
(§5) This method uses catenated DNA substrate prepared from the kinetoplast of the insect trypanosome Crithidia fasciculata. Upon incubation with topo II, which engages DNA in a double stranded breakage-reunion cycle, DNA minicircles are released. Addition of topo-inhibiting drugs may prevent decatenation.
(§6) Topo II Decatenation Assay Protocol
(§7) This assay is the same as the Topo II Relaxation assay except that the pBR 322 Plasmid DNA is replaced with kDNA.
(§8) Results are included in Table 3 below

The target of assay [4] is T2, Topoisomerase IIβ. Briefly: Topo II decatenation assay. To be noted: unit not given; kDNA substrate; compound at 1, 10, 25 and 50 μM in protocol. It counts as biochemical. How it is done:
as §4, §5, §6, §7, §8

In another assay the target is T3, Topoisomerase I (Homo sapiens, UniProt P11387).
T3 sequence (P11387 1-765): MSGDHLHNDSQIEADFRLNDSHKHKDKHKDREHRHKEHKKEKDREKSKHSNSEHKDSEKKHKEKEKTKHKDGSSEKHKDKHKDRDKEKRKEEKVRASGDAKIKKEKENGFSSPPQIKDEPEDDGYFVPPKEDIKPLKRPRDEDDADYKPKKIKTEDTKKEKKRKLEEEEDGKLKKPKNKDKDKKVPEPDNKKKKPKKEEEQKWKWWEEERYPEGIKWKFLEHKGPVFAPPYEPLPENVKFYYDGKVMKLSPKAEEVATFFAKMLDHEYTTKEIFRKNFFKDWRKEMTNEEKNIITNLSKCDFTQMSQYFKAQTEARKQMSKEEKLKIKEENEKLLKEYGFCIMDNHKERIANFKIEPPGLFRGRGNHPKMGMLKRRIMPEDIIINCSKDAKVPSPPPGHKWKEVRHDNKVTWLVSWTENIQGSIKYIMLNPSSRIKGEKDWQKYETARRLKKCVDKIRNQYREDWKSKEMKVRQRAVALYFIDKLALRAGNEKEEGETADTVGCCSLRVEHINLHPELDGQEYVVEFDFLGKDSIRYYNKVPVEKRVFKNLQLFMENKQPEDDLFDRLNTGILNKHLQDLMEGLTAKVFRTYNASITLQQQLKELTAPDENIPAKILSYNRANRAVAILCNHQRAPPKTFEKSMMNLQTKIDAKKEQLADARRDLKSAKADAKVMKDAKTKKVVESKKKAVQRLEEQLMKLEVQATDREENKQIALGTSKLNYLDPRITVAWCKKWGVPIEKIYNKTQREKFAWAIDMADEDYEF
Briefly: Topo I cleavage assay. It counts as biochemical. To be noted: at 10 μM.

Assay [5] relates to MAC 15A adenocarcinoma of the colon. As to the kind of experiment: In vitro chemosensitivity against MAC 15A adenocarcinoma (MTT assay). In kind it is cell-based. To be noted: Mus musculus, MAC15A, 96 hours continuous exposure. As to the method:
In Vitro Activity Against MAC 15A Adenocarcinoma.
MAC 15A cells were grown in RPMI 1640 medium supplemented with 10% foetal calf serum containing a 1% antibiotic mixture under standard tissue culture conditions and were maintained at 37° C. in a humidified atmosphere of 5% CO2 in air. Cells were harvested from a stock culture in exponential growth phase and plated in 96-well flat-bottomed plates to achieve a final density of 2×10^3 cells per well. After 2 hours incubation medium was replaced with either fresh medium containing 0.5% DMSO (control) or medium containing test compound dissolved in DMSO at a concentrations from 10 mM to 1 nM. Chemosensitivity was assessed using MTT assay by the method of Plumb et al Cancer Research 49 (1989) 4435-4440.
Following 96 hours continuous exposure to drug at 37° C. cells were incubated with fresh drug-free medium immediately prior to addition of MTT solution (5 mg/ml). Medium and MTT were removed after 4 hours and 150 μl of DMSO was added. For each plate the absorbance of the resulting solution was measured at the analytical wavelength 550 nm for formazan product, using a Labsystem Mutiskan. IC50 values were obtained from growth curves of drug concentration against % survival and are expressed in μm.
A general note: Formazan colour is commonly taken as a measure of viable cells.

In general, IC50 refers to the concentration needed to halve the response being measured.

T1 sequence (P11388 whole entry): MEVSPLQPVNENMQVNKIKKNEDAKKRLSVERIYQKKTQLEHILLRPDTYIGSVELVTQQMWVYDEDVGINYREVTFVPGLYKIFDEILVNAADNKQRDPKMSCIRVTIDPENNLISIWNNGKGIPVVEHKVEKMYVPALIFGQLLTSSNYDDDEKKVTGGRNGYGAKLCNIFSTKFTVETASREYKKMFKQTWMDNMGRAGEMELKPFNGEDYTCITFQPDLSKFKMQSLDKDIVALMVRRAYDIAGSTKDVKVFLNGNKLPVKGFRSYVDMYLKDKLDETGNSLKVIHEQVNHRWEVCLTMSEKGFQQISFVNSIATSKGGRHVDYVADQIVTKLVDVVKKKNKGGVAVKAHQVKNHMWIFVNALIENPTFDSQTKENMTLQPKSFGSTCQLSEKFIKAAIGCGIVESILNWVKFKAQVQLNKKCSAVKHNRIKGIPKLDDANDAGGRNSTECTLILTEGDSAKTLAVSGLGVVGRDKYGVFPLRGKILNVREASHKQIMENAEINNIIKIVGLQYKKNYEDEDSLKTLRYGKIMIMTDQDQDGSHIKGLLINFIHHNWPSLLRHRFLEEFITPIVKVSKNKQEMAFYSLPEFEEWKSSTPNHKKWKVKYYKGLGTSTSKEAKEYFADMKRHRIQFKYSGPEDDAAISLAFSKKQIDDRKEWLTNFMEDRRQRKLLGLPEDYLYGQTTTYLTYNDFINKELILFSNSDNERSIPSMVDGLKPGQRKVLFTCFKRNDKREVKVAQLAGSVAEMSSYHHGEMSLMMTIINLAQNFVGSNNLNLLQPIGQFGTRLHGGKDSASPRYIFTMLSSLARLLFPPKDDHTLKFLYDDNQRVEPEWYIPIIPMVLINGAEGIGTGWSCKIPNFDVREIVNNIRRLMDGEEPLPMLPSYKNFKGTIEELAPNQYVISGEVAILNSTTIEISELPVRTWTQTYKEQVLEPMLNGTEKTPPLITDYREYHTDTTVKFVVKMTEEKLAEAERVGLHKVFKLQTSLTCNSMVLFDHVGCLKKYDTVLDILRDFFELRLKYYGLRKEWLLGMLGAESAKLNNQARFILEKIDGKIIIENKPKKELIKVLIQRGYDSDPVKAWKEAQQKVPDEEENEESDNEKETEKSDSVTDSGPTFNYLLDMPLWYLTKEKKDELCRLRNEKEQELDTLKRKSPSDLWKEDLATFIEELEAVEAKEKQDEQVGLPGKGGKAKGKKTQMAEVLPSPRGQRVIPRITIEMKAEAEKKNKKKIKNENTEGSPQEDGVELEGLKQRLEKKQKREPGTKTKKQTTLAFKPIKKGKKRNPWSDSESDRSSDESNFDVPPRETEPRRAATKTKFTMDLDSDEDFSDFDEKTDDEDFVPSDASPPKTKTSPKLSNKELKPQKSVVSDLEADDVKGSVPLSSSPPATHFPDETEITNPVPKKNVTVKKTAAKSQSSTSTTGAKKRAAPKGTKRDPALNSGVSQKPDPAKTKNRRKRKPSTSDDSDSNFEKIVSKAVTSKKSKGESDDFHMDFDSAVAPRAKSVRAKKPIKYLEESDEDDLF

As for `CC(C)[C@@H](N)C(=O)OCCCNc1cccc2c1C(=O)c1ccccc1C2=O.O=C(O)C(F)(F)F` [Example 37, 1-[3-(D-valyloxy)propylamino]anthracene-9,10-dione trifluoroacetate], the “TopIIα Relax.” value at Topoisomerase IIα [1] is “—”. For the same compound, at Topoisomerase IIβ [2], the “TopIIβ Relax.” value is listed as “—”. In addition, at Topoisomerase IIα [3], the “TopIIα Decat.” value is “—”. Moreover, the “TopIIβ Decat.” value at Topoisomerase IIβ [4] came out at 25.

As to `O=C(O)C(F)(F)F.O=C1c2ccccc2C(=O)c2c(NCCCCOC(=O)[C@@H]3CCCN3)cccc21` [Example 47, 1-[4-(L-prolyloxy)butylamino]anthracene-9,10-dione trifluoroacetate], the “TopIIα Relax.” value on Topoisomerase IIα [1] is 5. Further, on Topoisomerase IIβ [2], the “TopIIβ Relax.” value amounted to 10.

At Topoisomerase I, `CC[C@@]1(O)C(=O)OCc2c1cc1n(c2=O)Cc2cc3ccccc3nc2-1` [campothecin, reference compound] registered a nicked plasmid of 90%.

For the compound `CC(C)[C@H](N)C(=O)OCCCNc1ccc(O)c2c1C(=O)c1c(O)cccc1C2=O.O=C(O)C(F)(F)F` [Example 57, 4,8-dihydroxy-1-[3-(L-valyloxy)propylamino]anthracene-9,10-dione trifluoroacetate], the IC50 in assay [5] amounted to 3.8 µM. Further, at Topoisomerase IIα [1], the “TopIIα Relax.” value was “—”. Further, the “TopIIβ Relax.” value on Topoisomerase IIβ [2] amounted to 25. Further, the “TopIIα Decat.” value at Topoisomerase IIα [3] is listed as “—”. Further, the “TopIIβ Decat.” value on Topoisomerase IIβ [4] came to 25.

Take `CC(C)[C@H](N)C(=O)OCCCNc1cccc2c1C(=O)c1ccccc1C2=O.O=C(O)C(F)(F)F` [Example 35, 1-[3-(L-valyloxy)propylamino]anthracene-9,10-dione trifluoroacetate]: the IC50 in assay [5] amounted to 2.9 µM. For the same compound, the “TopIIα Relax.” value at Topoisomerase IIα [1] was “—”. Further, on Topoisomerase IIβ [2], the “TopIIβ Relax.” value is on record as “—”.

Take `O=C(O)C(F)(F)F.O=C1c2ccccc2C(=O)c2c(NCCCCOC(=O)[C@H]3CCCN3)cccc21` [Example 49, 1-[4-(D-prolyloxy)butylamino]anthracene-9,10-dione trifluoroacetate]: the “TopIIα Relax.” value at Topoisomerase IIα [1] was found to be 25. Further, on Topoisomerase IIβ [2], the “TopIIβ Relax.” value came out at 25.

Turning to `N[C@@H](Cc1c[nH]c2ccccc12)C(=O)OCCCNc1cccc2c1C(=O)c1ccccc1C2=O.O=C(O)C(F)(F)F` [Example 41, 1-[3-(L-tryptophyloxy)propylamino]anthracene-9,10-dione trifluoro-acetate], the “TopIIα Relax.” value at Topoisomerase IIα [1] is reported as “—”.
